What all share (assay): relative viability (nuclei count vs DMSO), 5 days (fraction); higher = more cells survive
Compound in the test “Doramapimod + Dasatinib”: Cc1ccc(-n2nc(C(C)(C)C)cc2NC(=O)Nc2ccc(OCCN3CCOCC3)c3ccccc23)cc1 [Doramapimod] + Cc1nc(Nc2ncc(C(=O)Nc3c(C)cccc3Cl)s2)cc(N2CCN(CCO)CC2)n1 [Dasatinib] (partner 0.075 µM)
In a few lines: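 One day after seeding in 1536-well plates, lung cancer cell lines were dosed by pin tool. Dosing was either single-drug or a fixed anchor-drug dose plus five library-drug doses (not always all listed) in √10 steps. After 5 days, nuclei were stained in one fix-and-stain step and counted on 4× images, and relative viability is the nuclei count of treated wells over that of vehicle wells, given as the median of duplicate plates.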

Compound in the next test: C1=CC=C2C(=C1)C=CC(=C2SSC3=C(C=CC4=CC=CC=C43)O)O [IPA-3]
In short, it runs like this:
(§1)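 A plate was accepted only when its control CV was below 25% and the cells had doubled at least once. Viability is defined from nuclear counts as treated wells divided by vehicle wells, with the median taken across plates. That median covers lung cancer cell lines grown in 1536-well plates, dosed by pinning at five √10-spaced library-drug concentrations, and counted in MetaXpress from 4× Hoechst images after 5 days.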

Compound in another test: Cn1c(Nc2ccc(C(F)(F)F)cc2)nc2cc(Oc3ccnc(-c4ncc(C(F)(F)F)[nH]4)c3)ccc21 [RAF265]
In short, it runs like this:
as §1

Compound in a further test: Cc1ccc(-n2nc(C(C)(C)C)cc2NC(=O)Nc2ccc(OCCN3CCOCC3)c3ccccc23)cc1 [Doramapimod]
In a few lines:
as §1

Data on five cell lines can be found in the supplement of paper PMC10307832.

In the case of NCI-H2087, the relative viability with Doramapimod + Dasatinib (first compound 0.02 µM) was determined as 0.937; in the test with Doramapimod + Dasatinib (first compound 0.06325 µM), 1.07; in the test with Doramapimod + Dasatinib (first compound 0.2 µM), 0.809; with Doramapimod + Dasatinib (first compound 0.6325 µM), 0.893; with Doramapimod + Dasatinib (first compound 2 µM) it was 0.837; with IPA-3 (0.2 µM), 1.33. The relative viability with IPA-3 (0.6325 µM) was determined as 0.87; in the test with IPA-3 (2 µM), 0.89; with IPA-3 (6.325 µM), 0.935; in the test with IPA-3 (20 µM) it was 1.13; with RAF265 (0.01 µM), 1.04; in the test with RAF265 (0.03162 µM) it was 0.796. Besides, the relative viability in the test with RAF265 (0.1 µM) stood at 0.796; with RAF265 (0.3162 µM) it was 0.617; in the test with RAF265 (1 µM), 0.639; with Doramapimod (0.02 µM), 1.05; with Doramapimod (0.06325 µM), 0.975; with Doramapimod (0.2 µM), 1.14. Moreover, the relative viability came to 1.01 with Doramapimod (0.6325 µM) and 1 in the test with Doramapimod (2 µM).
Take NCI-H2126: the relative viability is 0.59 with Doramapimod + Dasatinib (first compound 0.02 µM); 0.661 with Doramapimod + Dasatinib (first compound 0.06325 µM); 0.577 with Doramapimod + Dasatinib (first compound 0.2 µM); 0.544 with Doramapimod + Dasatinib (first compound 0.6325 µM); 0.497 with Doramapimod + Dasatinib (first compound 2 µM); 1.07 with IPA-3 (0.2 µM). The relative viability was found to be 0.974 with IPA-3 (0.6325 µM); 0.976 with IPA-3 (2 µM); 0.995 with IPA-3 (6.325 µM); 1.11 in the test with IPA-3 (20 µM); 1.04 with RAF265 (0.01 µM); 0.949 with RAF265 (0.03162 µM). Moreover, the relative viability with RAF265 (0.1 µM) was 0.951; in the test with RAF265 (0.3162 µM) it was 0.855; with RAF265 (1 µM) it was 0.72; with Doramapimod (0.02 µM), 1.02; with Doramapimod (0.06325 µM), 1.02; in the test with Doramapimod (0.2 µM), 0.973. In addition, the relative viability in the test with Doramapimod (0.6325 µM) came to 1.03; with Doramapimod (2 µM), 0.967.
Consider NCI-H2170, for which the relative viability came out at 0.614 with Doramapimod + Dasatinib (first compound 0.02 µM); 0.616 in the test with Doramapimod + Dasatinib (first compound 0.06325 µM); 0.7 with Doramapimod + Dasatinib (first compound 0.2 µM); 0.896 with Doramapimod + Dasatinib (first compound 0.6325 µM); 0.594 in the test with Doramapimod + Dasatinib (first compound 2 µM); 1.08 with IPA-3 (0.2 µM). Besides, the relative viability was 1.01 in the test with IPA-3 (0.6325 µM); 0.999 with IPA-3 (2 µM); 0.878 with IPA-3 (6.325 µM); 0.988 with IPA-3 (20 µM); 0.957 with RAF265 (0.01 µM); 0.896 in the test with RAF265 (0.03162 µM). Moreover, the relative viability was found to be 0.877 with RAF265 (0.1 µM); 0.755 in the test with RAF265 (0.3162 µM); 0.716 with RAF265 (1 µM); 0.923 in the test with Doramapimod (0.02 µM); 0.98 with Doramapimod (0.06325 µM); 0.996 in the test with Doramapimod (0.2 µM). The relative viability with Doramapimod (0.6325 µM) amounted to 0.972; with Doramapimod (2 µM), 0.943.
For NCI-H2228, the relative viability came out at 0.561 with Doramapimod + Dasatinib (first compound 0.02 µM); 0.48 with Doramapimod + Dasatinib (first compound 0.06325 µM); 0.452 with Doramapimod + Dasatinib (first compound 0.2 µM); 0.49 in the test with Doramapimod + Dasatinib (first compound 0.6325 µM); 0.398 in the test with Doramapimod + Dasatinib (first compound 2 µM); 1.44 with IPA-3 (0.2 µM). In addition, the relative viability in the test with IPA-3 (0.6325 µM) worked out at 0.864; with IPA-3 (2 µM) it was 1.04; with IPA-3 (6.325 µM), 1.05; in the test with IPA-3 (20 µM), 1.02; with RAF265 (0.01 µM), 0.967; with RAF265 (0.03162 µM) it was 0.89. Further, the relative viability with RAF265 (0.1 µM) was determined as 0.926; with RAF265 (0.3162 µM), 0.498; with RAF265 (1 µM), 0.309; with Doramapimod (0.02 µM), 1.13; in the test with Doramapimod (0.06325 µM) it was 0.988; with Doramapimod (0.2 µM), 1.02. Moreover, the values for the relative viability with Doramapimod (0.6325 µM) and with Doramapimod (2 µM) were 1.07 and 0.795, respectively.
For the cell line NCI-H2342, the relative viability with Doramapimod + Dasatinib (first compound 0.02 µM) stood at 0.277; in the test with Doramapimod + Dasatinib (first compound 0.06325 µM) it was 0.309; with Doramapimod + Dasatinib (first compound 0.2 µM), 0.319; with Doramapimod + Dasatinib (first compound 0.6325 µM), 0.333; with Doramapimod + Dasatinib (first compound 2 µM), 0.278; in the test with IPA-3 (0.2 µM), 1.07. For the same cell line, the relative viability came to 1.08 with IPA-3 (0.6325 µM); 0.975 with IPA-3 (2 µM); 1.11 in the test with IPA-3 (6.325 µM); 1.14 with IPA-3 (20 µM); 0.937 with RAF265 (0.01 µM); 1.06 with RAF265 (0.03162 µM). The relative viability in the test with RAF265 (0.1 µM) worked out at 1.04; in the test with RAF265 (0.3162 µM) it was 0.895; with RAF265 (1 µM), 0.85; with Doramapimod (0.02 µM), 1.05; with Doramapimod (0.06325 µM) it was 0.918; with Doramapimod (0.2 µM) it was 0.998. Moreover, the results for the relative viability with Doramapimod (0.6325 µM) and with Doramapimod (2 µM) were 1.09 and 0.933, respectively.
